Measurements reported in PMC11062899, “De novo development of small cyclic peptides that are orally bioavailable” (Nature Chemical Biology, 2023).
Values joined by “and” are separate entries in the source; they are usually repeats but may differ in a detail not shown here. Identical values can stand only once. Like-named read-outs stand apart in the source and are kept apart here.

Key:
human α-thrombin = human α-thrombin (Homo sapiens, UniProt P00734); assay: Protease inhibition, Ki for human α-thrombin (fluorogenic substrate Z-Gly-Gly-Arg-AMC); assay type: biochemical; conditions: for Human alpha thrombin inhibition, slope normalized to DMSO: replicates R1-R3
How it was run: (§1)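 Ki derived through Cheng–Prusoff from IC50s (four-parameter logistic fit) against activity of peptide-free controls. Product fluorescence was read every 3 min over 30 min at 25 °C, substrate Z-Gly-Gly-Arg-AMC at 50 μM. Enzyme was 2 nM human or 3 nM rat α-thrombin, pH 7.4 buffer.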

rat α-thrombin = target: T1, rat α-thrombin (Rattus norvegicus, UniProt P18292); assay: Protease inhibition, Ki for rat α-thrombin (fluorogenic substrate Z-Gly-Gly-Arg-AMC); assay type: biochemical; conditions: for Slope normalized to DMSO (proteolytic substrate cleavage over time) / Rat alpha thrombin inhibition, slope normalized to DMSO: replicates R1-R3
T1 construct: rat α-thrombin (Molecular Innovations) were used at final concentrations of 2 nM and 3 nM; purchased Molecular Innovations
How it was run: as §1

[1] = Peptide stability in simulated intestinal fluid (SIF); assay type: in vitro ADME, porcine; conditions: simulated gi fluid; 8 h, 37 °C, pH 6.8; read-out: Proteolytic stability: SIF (8 h) % remaining
How it was run: (§2)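 Peptide from a 1 mM DMSO stock was added to fluid pre-warmed at 37 °C. SGF was pH 1.2 NaCl with porcine pepsin (0.32 g per 100 ml), and SIF was pH 6.8 potassium phosphate with porcine pancreatin (1 g per 100 ml). Supernatant peptide was quantified by LC–MS, with residual expressed as T1/T0.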

porcine pancreatin = assay: as above; assay type: in vitro ADME; conditions: after 8 h vs 0 h (TIC); average of R1-R3
How it was run: as §2

[2] = Passive artificial membrane permeability (PAMPA)
Procedure: The plate system consisted of a 96-well microwell plate (donor wells) and a 96-well insert containing a PVDF membrane coated with tri-layers of phospholipids (acceptor wells). Permeability was measured from the bottom plate (donor wells) to the top insert (acceptor wells). Cyclic peptide or reference compound solutions were prepared at a concentration of 50 μM in PBS buffer (pH 7.4) containing 5% DMSO, and 300 μl of the resulting solutions was placed into the donor wells of the PAMPA plate. Acceptor wells were prepared by adding 200 μl of PBS buffer (pH 7.4) containing 5% DMSO. The insert was stacked onto the donor plate, and the system was covered with a lid to avoid evaporation. […] Additionally, 3:2 dilutions of the 50 μM cyclic peptide stocks were prepared in PBS buffer (pH 7.4) containing 5% DMSO to yield a sample corresponding to the theoretical equilibrium between donor and acceptor wells. The samples were run on the LC–MS to measure the cyclic peptide concentration representing maximum permeability. Permeability percent was calculated using equation (4) below.4 Permeability%=PeptideAcceptor/PeptideEquilibrated×100 where [PeptideAcceptor] represents the AUC measured on the LC–MS for the acceptor wells, and [PeptideEquilibrated] represents the AUC measured for the samples diluted to the theoretical equilibrium. Detection limit for the assay was typically at 1% permeability.
Papp values were calculated using equation (5).5 Papp=VD×VA/VD+VA×A×t×−ln1−PeptideAcceptor/PeptideEquilibrated where VD and VA are the volumes of donor and acceptor wells, respectively; A is the area of the membrane; and t is the incubation time.

[3] = Metabolic stability in rat liver microsomes (RLMs); conditions: rat, microsomes
[4] = peptide 1.33E+02 uM, slope of proteolytic substrate cleavage over time

In the case of `O=C1C[C@H]2CCCN2C(=O)[C@H](Cc2ccccc2)NC(=O)[C@@H](NC(=O)c2ccc(Cl)s2)CSCCS(=O)(=O)CCSCCN1` [peptide 11], the IC50 (human α-thrombin; human alpha thrombin, individual replicates R1-R3, read-out: IC50) is reported as 122 nM and 107 nM and 104 nM, the Ki (human α-thrombin; human alpha thrombin, individual replicates R1-R3, read-out: Ki) is reported as 94.1 nM and 82.8 nM and 80.4 nM and the Ki (human α-thrombin; human alpha thrombin, average of R1-R3, read-out: Ki Average) is reported as 85.8 nM. For the same compound, the “Human alpha thrombin inhibition, slope normalized to DMSO” value (human α-thrombin; peptide 1.02E-03 uM) was 92.7 and 96.3 and 98.1, the “Human alpha thrombin inhibition, slope normalized to DMSO” value (human α-thrombin; peptide 1.04E+00 uM) was 14.1 and 15.4 and 19.5 and the “Human alpha thrombin inhibition, slope normalized to DMSO” value (human α-thrombin; peptide 1.27E-04 uM) was 98.4 and 100.1 and 101.4. For the same compound, the “Human alpha thrombin inhibition, slope normalized to DMSO” value (human α-thrombin; peptide 1.30E-01 uM) was 51.2 and 52.1 and 48.8, the “Human alpha thrombin inhibition, slope normalized to DMSO” value (human α-thrombin; [4]) was 8.1 and 8.7 and 9.0 and the “Human alpha thrombin inhibition, slope normalized to DMSO” value (human α-thrombin; peptide 1.63E-02 uM) was 87.3 and 78.8 and 85.1. The “Human alpha thrombin inhibition, slope normalized to DMSO” value (human α-thrombin; peptide 1.67E+01 uM) was 9.8 and 9.6 and 8.8, the “Human alpha thrombin inhibition, slope normalized to DMSO” value (human α-thrombin; peptide 2.03E-03 uM) was 100.0 and 90.9 and 98.1 and the “Human alpha thrombin inhibition, slope normalized to DMSO” value (human α-thrombin; peptide 2.08E+00 uM) was 10.6 and 11.3 and 7.9. The “Human alpha thrombin inhibition, slope normalized to DMSO” value (human α-thrombin; peptide 2.54E-04 uM) was 99.0 and 98.6 and 98.3, the “Human alpha thrombin inhibition, slope normalized to DMSO” value (human α-thrombin; peptide 2.60E-01 uM) was 38.3 and 36.0 and 36.6 and the “Human alpha thrombin inhibition, slope normalized to DMSO” value (human α-thrombin; peptide 3.18E-05 uM) was 100.0 and 103.6 and 101.9. The “Human alpha thrombin inhibition, slope normalized to DMSO” value (human α-thrombin; peptide 3.26E-02 uM) was 77.4 and 76.3, the “Human alpha thrombin inhibition, slope normalized to DMSO” value (human α-thrombin; peptide 3.33E+01 uM) was 8.8 and 8.2 and 6.8 and the “Human alpha thrombin inhibition, slope normalized to DMSO” value (human α-thrombin; peptide 4.07E-03 uM) was 95.6 and 92.2 and 94.3. For the same compound, the “Human alpha thrombin inhibition, slope normalized to DMSO” value (human α-thrombin; peptide 4.17E+00 uM) was -2.0 and 6.9 and 2.0, the “Human alpha thrombin inhibition, slope normalized to DMSO” value (human α-thrombin; peptide 5.09E-04 uM) was 98.9 and 97.6 and 107.7 and the “Human alpha thrombin inhibition, slope normalized to DMSO” value (human α-thrombin; peptide 5.21E-01 uM) was 24.9 and 24.6 and 25.0. The “Human alpha thrombin inhibition, slope normalized to DMSO” value (human α-thrombin; peptide 6.36E-05 uM) was 101.3 and 99.0 and 104.0, the “Human alpha thrombin inhibition, slope normalized to DMSO” value (human α-thrombin; peptide 6.51E-02 uM) was 65.9 and 65.1 and 64.6 and the “Human alpha thrombin inhibition, slope normalized to DMSO” value (human α-thrombin; peptide 6.67E+01 uM) was 8.2 and 10.4 and 4.8. For the same compound, the “Human alpha thrombin inhibition, slope normalized to DMSO” value (human α-thrombin; peptide 8.14E-03 uM) was 92.7 and 91.1 and 94.4, the “Human alpha thrombin inhibition, slope normalized to DMSO” value (human α-thrombin; peptide 8.33E+00 uM) was 14.8 and 11.1 and the Ki (human α-thrombin; purified peptide, mean and s.d. of three measurements, read-out: Ki human α-thrombin) was 82 ± 10 nM. For the same compound, the Ki (human α-thrombin; single replicates R1-R3, read-out: Ki (nM), human alpha thrombin inhibition) was 94.1 nM and 82.8 nM and 80.4 nM, the Ki (rat α-thrombin; average of R1-R3, read-out: Ki Average) was 36.8 nM and the “Slope normalized to DMSO (proteolytic substrate cleavage over time)” value (rat α-thrombin; peptide 1.02E-03 uM) was 94.9 and 90.5 and 126.3. For the same compound, the “Slope normalized to DMSO (proteolytic substrate cleavage over time)” value (rat α-thrombin; peptide 1.04E+00 uM) was 9.4 and 10.0 and 7.6, the “Slope normalized to DMSO (proteolytic substrate cleavage over time)” value (rat α-thrombin; peptide 1.27E-04 uM) was 95.1 and 96.6 and 96.3 and the “Slope normalized to DMSO (proteolytic substrate cleavage over time)” value (rat α-thrombin; peptide 1.30E-01 uM) was 36.1 and 35.6 and 32.6. For the same compound, the “Rat alpha thrombin inhibition, slope normalized to DMSO” value (rat α-thrombin; [4]) was 7.9 and 5.3 and 6.2, the “Slope normalized to DMSO (proteolytic substrate cleavage over time)” value (rat α-thrombin; peptide 1.63E-02 uM) was 78.2 and 76.9 and 78.3 and the “Rat alpha thrombin inhibition, slope normalized to DMSO” value (rat α-thrombin; peptide 1.67E+01 uM) was 4.9 and 5.1 and 4.0. For the same compound, the “Slope normalized to DMSO (proteolytic substrate cleavage over time)” value (rat α-thrombin; peptide 2.03E-03 uM) was 89.6 and 92.6 and 90.5, the “Rat alpha thrombin inhibition, slope normalized to DMSO” value (rat α-thrombin; peptide 2.08E+00 uM) was 5.8 and 4.5 and 4.3 and the “Slope normalized to DMSO (proteolytic substrate cleavage over time)” value (rat α-thrombin; peptide 2.54E-04 uM) was 95.9 and 93.5 and 98.7. For the same compound, the “Slope normalized to DMSO (proteolytic substrate cleavage over time)” value (rat α-thrombin; peptide 2.60E-01 uM) was 24.9 and 24.5 and 24.7, the “Slope normalized to DMSO (proteolytic substrate cleavage over time)” value (rat α-thrombin; peptide 3.18E-05 uM) was 97.8 and 96.7 and 99.3 and the “Slope normalized to DMSO (proteolytic substrate cleavage over time)” value (rat α-thrombin; peptide 3.26E-02 uM) was 68.3 and 65.8 and 66.5. The “Rat alpha thrombin inhibition, slope normalized to DMSO” value (rat α-thrombin; peptide 3.33E+01 uM) was 4.3 and 4.0 and 4.9, the “Slope normalized to DMSO (proteolytic substrate cleavage over time)” value (rat α-thrombin; peptide 4.07E-03 uM) was 90.1 and 88.8 and 91.4 and the “Rat alpha thrombin inhibition, slope normalized to DMSO” value (rat α-thrombin; peptide 4.17E+00 uM) was 4.1 and 2.6 and 2.8. The “Slope normalized to DMSO (proteolytic substrate cleavage over time)” value (rat α-thrombin; peptide 5.09E-04 uM) was 95.0 and 94.4 and 95.5, the “Slope normalized to DMSO (proteolytic substrate cleavage over time)” value (rat α-thrombin; peptide 5.21E-01 uM) was 15.5 and 14.5 and the “Slope normalized to DMSO (proteolytic substrate cleavage over time)” value (rat α-thrombin; peptide 6.36E-05 uM) was 97.1 and 98.7 and 90.6. For the same compound, the “Slope normalized to DMSO (proteolytic substrate cleavage over time)” value (rat α-thrombin; peptide 6.51E-02 uM) was 52.7 and 50.7 and 50.5, the “Rat alpha thrombin inhibition, slope normalized to DMSO” value (rat α-thrombin; peptide 6.67E+01 uM) was 3.6 and 3.0 and 1.8 and the “Slope normalized to DMSO (proteolytic substrate cleavage over time)” value (rat α-thrombin; peptide 8.14E-03 uM) was 84.4. For the same compound, the “Rat alpha thrombin inhibition, slope normalized to DMSO” value (rat α-thrombin; peptide 8.33E+00 uM) was 4.9 (2×) and 4.3, the IC50 (rat α-thrombin; single replicates R1-R3, read-out: IC50) was 71.7 nM and 68.3 nM and 59.7 nM and the Ki (rat α-thrombin; single replicates R1-R3, read-out: Ki) was 39.7 nM and 37.8 nM and 33 nM (2×). The remaining at 8 h [1] was 14 ± 4.4%, the “SIF stability, Residual peptide Average” value (porcine pancreatin) was 14.00 and the “PAMPA permeability: % permeability” value ([2]; 50 μM, 12–18 h, acceptor concentration relative to equilibrium) was 1.23 ± 0.72%. For the same compound, the Papp at 50 μM ([2]; PAMPA, pH 7.4) was 0.0708 ×10⁻⁶ cm/s, the “Permeability% Average” value ([2]; PAMPA, average of R1-R3) was 1.2% and the “Permeability% R1” value ([2]; PAMPA, replicate R1, TIC of top well sample relative to sample at theoretical equilibrium) was 0.47%. For the same compound, the “Permeability% R3” value ([2]; PAMPA, replicate R3, TIC of top well sample relative to sample at theoretical equilibrium) was 1.91%, the microsomal CLint ([3]; CL (ul/min/mg protein) R1, RLM CL, replicate R1) was 92.9 µL/min/mg and the microsomal CLint ([3]; CL (ul/min/mg protein) R2, RLM CL, replicate R2) was 68.2 µL/min/mg. It also gave a microsomal CLint ([3]; CL (ul/min/mg protein) R3, RLM CL, replicate R3) of 83.9 µL/min/mg, a half-life ([3]; Half Life (min) R1, RLM metabolic stability, replicate R1, 0-60 min) of 14.9 min and a half-life ([3]; Half Life (min) R2, RLM metabolic stability, replicate R2, 0-60 min) of 20.3 min. The half-life ([3]; Half Life (min) R3, RLM metabolic stability, replicate R3, 0-60 min) was 16.5 min, the half-life ([3]; Metabolic stability: Half life T1/2 (min), RLMs, mean and SD, three measurements) was 17.3 ± 2.3 min and the microsomal CLint ([3]; Metabolic stability: RLM CL (ul/min/mg), RLMs, mean and SD, three measurements) was 82 ± 10 µL/min/mg. The microsomal CLint ([3]; Metabolic stability: RLM CL Average, summary table, average of R1-R3) was 81.7 µL/min/mg, the microsomal CLint ([3]; Metabolic stability: RLM CL R1, summary table, rounded, replicate R1) was 92.9 µL/min/mg and the microsomal CLint ([3]; Metabolic stability: RLM CL R2, summary table, rounded, replicate R2) was 68.2 µL/min/mg. For the same compound, the microsomal CLint ([3]; Metabolic stability: RLM CL R3, summary table, rounded, replicate R3) was 83.9 µL/min/mg.
